Calls of active or inactive are those of the source. The rule behind the calls is not given here.
Assays:
[1] = molecular target: T1, UDP-3-O-acyl-N-acetylglucosamine deacetylase (Aquifex aeolicus (strain VF5), UniProt O67648); assay: (§1) Binding affinity to Aquifex aeolicus LpxC by isothermal titration calorimetry
T1 sequence (O67648 whole entry): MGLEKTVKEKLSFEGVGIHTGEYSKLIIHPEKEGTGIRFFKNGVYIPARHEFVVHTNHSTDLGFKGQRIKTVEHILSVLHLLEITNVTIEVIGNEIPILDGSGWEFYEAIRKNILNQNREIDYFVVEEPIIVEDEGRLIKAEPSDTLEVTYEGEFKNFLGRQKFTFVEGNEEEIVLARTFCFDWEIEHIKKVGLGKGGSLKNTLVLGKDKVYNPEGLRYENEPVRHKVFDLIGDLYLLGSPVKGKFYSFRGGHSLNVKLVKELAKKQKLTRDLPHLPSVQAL

[2] = molecular target: T2, UDP-3-O-acyl-N-acetylglucosamine deacetylase (Aquifex aeolicus (strain VF5)) (UniProt O67648); assay: as §1
T2 sequence (whole entry): T1 sequence (O67648 whole entry)

| Activity [2] | SMILES | Kd [1] [µM] |
| --- | --- | --- |
| – | CCCCCCCOc1ccc(C(=O)O)cc1Cl | 30 |
| – | CCCCCCCOc1ccc(C(=O)O)cc1 | 2.3 |
| – | CCCCCCCOc1ccc(C(=O)O)cc1O | 9 |
| – | CCCCCCCOc1ccc(CC(=O)O)cc1 | 2.6 |
| inactive | COc1ccc(C(=O)O)cc1 | – |
| – | CCCCCCCc1ccc(C(=O)O)cc1 | 35 |
| – | CCCCCCCOc1ccc(C(=O)O)cc1OC | 8.6 |
| – | CCCCCCCOc1ccc(C(=O)O)cc1[N+](=O)[O-] | 6.4 |
| inactive | CCCc1ccc(-c2ccc(C(=O)O)cc2)cc1 | – |
| – | CCCCCC/C=C/c1ccc(C(=O)O)cc1 | 6.2 |

From ChEMBL document CHEMBL1142922, “Amphipathic benzoic acid derivatives: synthesis and binding in the hydrophobic tunnel of the zinc deacetylase LpxC” (Bioorg Med Chem, 2007)
